In patent US8269010B2, “3-amino-pyridine derivatives for the treatment of metabolic disorders” (Piramal Healthcare Limited, priority 2006, dated 2012):

Columns and labels:
[1] = system: insulin resistant adipocytes (3T3 L1); assay: In vitro model exhibiting insulin resistance (IR assay): 14C-2-deoxyglucose uptake; format: cell-based; conditions: glucose uptake; for fold induction at 10 µM: Mus musculus, dexamethasone-induced insulin resistant 3T3 L1 adipocytes, test compound 10 μM/mL, vehicle = 1.0, cut off 1.50 fold, read-out: Fold activity (fold activity over vehicle); for % of Rosiglitazone (comparison with Rosiglitazone): insulin resistant 3T3 L1 adipocytes, test compound 10 μM vs Rosiglitazone 0.1 μM
Method: The assay was designed as in the reference, British Journal of Pharmacology, 130, 351-58, 2000, the disclosure of which is incorporated by reference for the teaching of the assay. The solution of test compound (10 μM/mL) was prepared in DMSO. […] Differentiation into adipocytes was induced by the known methods as described below. (See, also, J. Biol. […] 3T3 L1 fibroblasts were seeded in 24- or 6-well plates at a density of 0.5−2×10^4 cells/well and were allowed to reach maximal confluency. The confluent fibroblasts were exposed to culture medium for 2 days. […] The mature adipocytes were exposed to dexamethasone, 100 nM added in ethanol, in culture medium and incubated for 2 days. […] The test compound was also present during this period. After 3-4 hours, the medium was aspirated and replaced with Kreb's Ringer phosphate (KRP) buffer at pH 7.4 and with human/porcine insulin, 200 nM. The cells were incubated for 30 minutes at 37° C. […] After exactly 5 minutes, the plates were transferred to ice trays and medium was rapidly aspirated. The cell layer was washed twice with ice-cold phosphate buffered saline, (PBS), pH 7.4. […] Non-specific glucose uptake was assayed in wells exposed to cytochalasin B, inhibitor of glucose transport. […] Statistical analysis was performed using unpaired t-test.

[2] = biological target: T1, Mouse PPARγ (Mus musculus, UniProt P37238); assay: Mouse PPARγ assay (TransAM PPARγ ELISA, 3T3-L1 fibroblasts); format: cell-based; conditions: test compound 50 μM, 72 hrs
T1 construct: endogenous in cells; host or cells: 3T3-L1 fibroblasts
T1 sequence (P37238 1-505): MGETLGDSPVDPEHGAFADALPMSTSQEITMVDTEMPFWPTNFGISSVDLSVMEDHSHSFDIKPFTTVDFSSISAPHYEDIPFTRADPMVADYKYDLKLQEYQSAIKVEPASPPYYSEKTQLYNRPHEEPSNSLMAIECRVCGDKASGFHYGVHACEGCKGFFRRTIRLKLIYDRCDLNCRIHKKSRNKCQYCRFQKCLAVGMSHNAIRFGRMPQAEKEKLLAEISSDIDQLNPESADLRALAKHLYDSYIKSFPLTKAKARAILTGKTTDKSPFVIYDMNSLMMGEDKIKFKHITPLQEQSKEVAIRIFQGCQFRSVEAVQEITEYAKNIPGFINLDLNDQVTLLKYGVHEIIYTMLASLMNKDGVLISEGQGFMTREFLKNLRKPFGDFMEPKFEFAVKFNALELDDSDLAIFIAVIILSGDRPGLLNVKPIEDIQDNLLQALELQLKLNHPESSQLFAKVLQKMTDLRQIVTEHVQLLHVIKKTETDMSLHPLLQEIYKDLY
Method: The assay was designed as in the reference, Blood, 104(5), 1361-8, 2004, the disclosure of which is incorporated by reference for the teaching of the assay.
3T3-L1 fibroblasts were seeded in 6-well plates at a density of 4×10^4 cells/well and cultured in DMEM containing 10% calf serum. After 4-5 days, when the cells become confluent, each of test compound was added (from a 20 mM stock in DMSO) to the final concentration of 50 μM in DMEM supplemented with 10% FCS. […] The plates were incubated for 72 hrs at 37° C. in a CO2 incubator with fresh medium containing test substances added after first 48 hrs. After 72 hrs, the medium was removed; the cell layer was washed and processed for the PPARγ assay as per the instruction of the manufacturer (Active Motif, North America, California, USA). PPARγ activation was determined using 96-well ELISA assay as per the instruction manual (TransAM PPARγ. Active Motif, Cat 0.40196). Assay Readout was absorbance output from spectrophotometer for the mouse PPARγ assay. Luminescence data output was recorded for the human PPARγ assay.

[3] = system: genetically diabetic db/db BL/6J mice; assay: Screening in db/db BL/6J mice: reduction of plasma glucose levels; format: in vivo; conditions: 10 days
Method: The protocol was designed as in references. • 1.
The screening of compounds was based on their ability to reduce the plasma glucose levels in genetically diabetic db/db BL/6J mice.
Male db/db mice (obtained from the Animal House of Nicholas Piramal Research Centre, Goregaon, Mumbai, India) were used for this study (body weight in the range of 30-40 g and age is 6-8 weeks) and were kept eight per cage in individually ventilated cages at controlled temperature (22±1° C.) and humidity (45±5%). Food and water were provided ad libitum during their laboratory stay, except for four hours fasting prior to blood sample collection. 12 hours light and dark cycle was followed during the whole study period.
After 4 hours fasting blood samples were collected from mice. Mice showing plasma glucose levels between 300 to 500 mg/dl were divided in groups (8-10 per group) such that the mean plasma glucose levels and variation within the group, for each group, is nearly same. After grouping, mice in respective groups received treatment with 0.5% CMC vehicle, standard compound or test compounds for 10 days.
After 4 hours fasting, mice were anaesthetized using isoflurane (inhalation anesthetic), and blood samples were collected through the retro orbital plexus. Collected blood samples were centrifuged at 7000 rpm for 10 minutes at 4° C.; Separated plasma was used for estimation of plasma glucose using diagnostic kits (Diasys, Germany). Plasma glucose levels of treated groups were normalized with control group using the following formula, which accounted for the changes in control group.
Formula used for normalization was *:{1−[…]}×100.

SMILES | fold induction at 10 µM [1] | % of Rosiglitazone (comparison with Rosiglitazone) [1] [%] | PPARγ activity (% of rosiglitazone) [2] [%] | Normalization with control (plasma glucose) ([3]; 150 mpk od) | Normalization with control (plasma glucose) ([3]; 50 mpk bid)
Cc1ccc(S(=O)(=O)Nc2cnc(Oc3cc4ccccc4cn3)c(Cl)c2)cc1Cl [Example 3, 3-Chloro-N-(5-chloro-6-(isoquinolin-3-yloxy)pyridin-3-yl)-4-methylbenzenesulfonamide] | 2.3 ± 0.16 | 52 ± 6.5 |  |  | 
N#Cc1ccc(S(=O)(=O)Nc2cnc(Oc3cc4ccccc4cn3)c(Cl)c2)cc1 [Example 5, N-(5-Chloro-6-(isoquinolin-3-yloxy)pyridin-3-yl)-4-cyanobenzenesulfonamide] | 2.41 ± 0.12 | 55.1 ± 4.8 |  |  | 
O=S(=O)(Nc1cnc(Oc2cc3ccccc3cn2)c(Cl)c1)c1ccc(Cl)cc1F [Example 13, 4-Chloro-N-(5-chloro-6-(isoquinolin-3-yloxy)pyridin-3-yl)-2-fluorobenzenesulfonamide] | 1.4 ± 0.07 | 19.5 ± 3.51 |  |  | 
O=S(=O)(Nc1cnc(Oc2cc3ccccc3cn2)c(Cl)c1)c1ccc(F)cc1Cl [Example 15, 2-Chloro-N-(5-chloro-6-(isoquinolin-3-yloxy)pyridin-3-yl)-4-fluorobenzenesulfonamide] | 1.7 ± 0.02 | 45.25 ± 1.04 | 0 |  | 
Cc1ccc(S(=O)(=O)Nc2cnc(Oc3cc4ccccc4cn3)c(Cl)c2)cc1 [Example 16, N-(5-Chloro-6-(isoquinolin-3-yloxy)pyridin-3-yl)-4-methylbenzenesulfonamide] | 1.6 ± 0.13 | 38.47 ± 7.98 | 18.85 |  | 
O=S(=O)(Nc1cnc(Oc2cc3ccccc3cn2)c(Cl)c1)c1ccc(Cl)c(Cl)c1 [Example 17, 3,4-Dichloro-N-(5-chloro-6-(isoquinolin-3-yloxy)pyridin-3-yl)benzenesulfonamide] | 1.26 ± 0.02 | 21.20 ± 1.5 | 12.57 |  | 
O=S(=O)(Nc1cnc(Oc2cc3ccccc3cn2)c(Cl)c1)c1ccc(OC(F)(F)F)cc1 [Example 18, N-(5-Chloro-6-(isoquinolin-3-yloxy)pyridin-3-yl)-4-(trifluoromethoxy)benzene-sulfonamide] | 1.77 ± 0.1 | 65 |  |  | 
COc1ccc(OC)c(S(=O)(=O)Nc2cnc(Oc3cc4ccccc4cn3)c(Cl)c2)c1 [Example 19, N-(5-Chloro-6-(isoquinolin-3-yloxy)pyridin-3-yl)-2,5-dimethoxybenzenesulfonamide] | 1.67 ± 0.13 | 50 ± 10.12 |  |  | 
O=S(=O)(Nc1cnc(Oc2cc3ccccc3cn2)c(Cl)c1)c1ccc(C(F)(F)F)cc1Cl [Example 20, 2-Chloro-N-(5-chloro-6-(isoquinolin-3-yloxy)pyridin-3-yl)-4(trifluoromethyl)benzene sulfonamide] | 2.4 ± 0.68 | 36.7 ± 0.96 |  |  | 
COc1ccc(S(=O)(=O)Nc2cnc(Oc3cc4ccccc4cn3)c(Cl)c2)cc1OC [Example 22, N-(5-Chloro-6-(isoquinolin-3-yloxy)pyridin-3-yl)-3,4-dimethoxybenzenesulfonamide] | 1.76 ± 0.58 | 15.8 ± 1.8 |  |  | 
COc1ccc(S(=O)(=O)Nc2cnc(Oc3cc4ccccc4cn3)c(Cl)c2)cc1 [Example 24, N-(5-Chloro-6-(isoquinolin-3-yloxy)pyridin-3-yl)-4-methoxybenzenesulfonamide] | 1.8 ± 0.32 | 46.2 ± 23.8 |  | Inactive | 
O=S(=O)(Nc1cnc(Oc2cnc3ccccc3c2)c(Cl)c1)c1ccc(Cl)cc1Cl [Example 27, 2,4-Dichloro-N-(5-chloro-6-(quinolin-3-yloxy)pyridin-3-yl)benzenesulfonamide] | 2.01 ± 0.23 | 57 ± 15.64 |  |  | 
Cc1ccc(S(=O)(=O)Nc2cnc(Oc3cnc4ccccc4c3)c(Cl)c2)cc1 [Example 28, N-(5-Chloro-6-(quinolin-3-yloxy)pyridin-3-yl)-4-methylbenzenesulfonamide] | 2.6 ± 0.17 | 71.77 ± 7.48 |  |  | 
O=S(=O)(Nc1cnc(Oc2cnc3ccccc3c2)c(Cl)c1)c1ccc(Cl)c(Cl)c1 [Example 29, 3,4-Dichloro-N-(5-chloro-6-(quinolin-3-yloxy)pyridin-3-yl)benzenesulfonamide] | 2.01 ± 0.09 | 76 ± 6.11 |  |  | 
COc1ccc(S(=O)(=O)Nc2cnc(Oc3cnc4ccccc4c3)c(Cl)c2)cc1OC [Example 30, N-(5-Chloro-6-(quinolin-3-yloxy)pyridin-3-yl)-3,4-dimethoxybenzenesulfonamide] | 1.84 ± 0.02 |  | 8.18 |  | 76.2 ± 19.2
O=S(=O)(Nc1cnc(Oc2cnc3ccccc3c2)c(Cl)c1)c1ccc(C(F)(F)F)cc1Cl [Example 33, 2-Chloro-N-(5-chloro-6-(quinolin-3-yloxy)pyridin-3-yl)-4-(trifluoromethyl)benzene-sulfonamide] | 2.58 ± 0.11 | 68.59 ± 4.81 |  |  | 
O=S(=O)(Nc1cnc(Oc2cnc3ccccc3c2)c(Cl)c1)c1ccc(F)cc1F [Example 34, N-(5-Chloro-6-(quinolin-3-yloxy)pyridin-3-yl)-2,4-difluorobenzenesulfonamide] | 1.7 ± 0.08 | 43.59 ± 4.77 | 8.17 |  | 57.2 ± 19.1
O=S(=O)(Nc1cnc(Oc2cnc3ccccc3c2)c(Cl)c1)c1ccc(F)cc1 [Example 35, N-(5-Chloro-6-(quinolin-3-yloxy)pyridin-3-yl)-4-fluorobenzenesulfonamide] | 2.44 ± 0.08 | 62.36 ± 3.51 |  |  | 
O=S(=O)(c1ccc(Cl)cc1Cl)N(c1cnc(Oc2cnc3ccccc3c2)c(Cl)c1)S(=O)(=O)c1ccc(Cl)cc1Cl [Example 45, 2,4-Dichloro-N-[(2,4-dichlorophenyl)sulfonyl]-N-[5-chloro-6-(quinolin-3-yloxy)pyridin-3-yl]-benzenesulfonamide] | 2.13 ± 0.04 | 59.5 ± 2.26 |  |  | 
O=S(=O)(Nc1cnc(Oc2ccc3ncccc3c2)c(Cl)c1)c1ccc(F)cc1F [Example 48, N-(5-Chloro-6-(quinolin-6-yloxy)pyridin-3-yl)-2,4-difluorobenzenesulfonamide] | 1.82 ± 0.13 | 36.7 ± 7.3 |  |  | 
